One experiment has as its target T1, ratM1 (Rattus norvegicus, UniProt P08482).
T1 construct: expressed in transfected cells; host or cells: CHO cells (stated generally for the assay, not specifically for rat M1)
T1 sequence (P08482 1-460): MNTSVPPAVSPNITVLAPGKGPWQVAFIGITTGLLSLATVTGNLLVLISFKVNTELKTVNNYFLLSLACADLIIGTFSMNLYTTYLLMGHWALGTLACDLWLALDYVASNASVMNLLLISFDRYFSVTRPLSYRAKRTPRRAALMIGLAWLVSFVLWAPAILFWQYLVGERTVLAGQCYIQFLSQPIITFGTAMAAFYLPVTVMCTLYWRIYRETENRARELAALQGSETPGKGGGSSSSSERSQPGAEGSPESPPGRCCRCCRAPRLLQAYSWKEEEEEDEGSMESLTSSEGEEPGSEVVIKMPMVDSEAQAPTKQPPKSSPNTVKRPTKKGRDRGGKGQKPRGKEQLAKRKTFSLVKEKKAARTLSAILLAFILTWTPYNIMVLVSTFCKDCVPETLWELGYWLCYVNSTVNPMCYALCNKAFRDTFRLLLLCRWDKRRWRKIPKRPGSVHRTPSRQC
As to the kind of experiment: M1 PAM assay (FLIPR intracellular calcium), rat M1. The format is cell-based. Conditions: rat M1, FLIPR Ca2+; second value of the cell; read-out: ratM1 EC50.

A further experiment addresses T2, human M1 (Homo sapiens, UniProt P11229).
T2 construct: expressed in transfected cells; host or cells: CHO cells
T2 sequence (P11229 1-460): T1 sequence (P08482 1-460) with V5A, S254T, S309P, K320R, G337A, V413I
Briefly: M1 PAM assay (FLIPR intracellular calcium), human M1. The format is cell-based. Conditions: CHO human M1 cells, FLIPR Ca2+, with EC20 of acetylcholine; first value of the cell; read-out: hM1 EC50. The procedure: The assay study the effect of several concentrations of test compounds on basal or acetylcholine-stimulated Ca^2+ levels using FLIPR.
CHO human M1 are plated the day before the experiments at 2×10^5 cells/ml in PDL BioCoat 96 well black/clear plate (Becton 35 4640). The cells are grown at 37° C. and 5% CO2 in the following medium: F12 Nut Mix (Gibco 21765), 10% FCS heat inactivated (GIBCO 16000-044), 1% Pen Strep (Gibco,15140) and 200 μg/ml Geneticin (Gibco 11811). On the day of the experiment, the medium was removed and replaced by […] of dye loading buffer containing Hanks Balanced Salt solution (HBSS, 14065-049, Gibco) with 20 mM HEPES (Gibco 15630-056), 2 mM Probenicid (Sigma P8761), […] ester (Molecular Probes F-14202), 10% Pluronic acid Molecular Probes P-3000) pH=7.4 and incubated at 37° C. After 60 minutes extracellular dye was removed and the cells were washed five times with FLIPR buffer containing HBSS (Gibco 14065-049) with 20 mM HEPES (Gibco, 15630-056), 2 mM Probenicid (Sigma P8761) pre-warmed at 37° C. using and Ebml cell washer leaving […] of FLIPR buffer in each well. The cell plate and the diluted compounds (1% DMSO final concentration) are placed on the platform of the FLIPR and the door closed. A signal test to check background fluorescence and basal fluorescence signal is performed. Laser intensity is adjusted if necessary. Two minutes preincubation with the diluted test compounds is provide to determine any agonist activity on the M1 receptor by comparison to 30 nM Acetylcholine control. In order to determine any modulator activity the diluted compounds were added to cells and after two minutes preincubation, the EC20 of acetylcholine is added followed by another two minutes preincubation before the measurement of intracellular Ca^2+ with a FLIPR (Molecular Devices).
Background: Calcium flux is commonly read through the fluorescence of an indicator in the cells.

SMILES strings stand for the structures. Numbering of substitutions follows the chain as printed.

Usually EC50 stands for the midpoint of the concentration-response curve.

`Cn1cc(-c2ccc(Cn3cc(C(=O)NC4CC(F)(F)C4)c4c(F)cccc43)cc2)cn1` [Example 9, N-(3,3-difluorocyclobutyl)-4-fluoro-1-(4-(1-methyl-1H-pyrazol-4-yl)benzyl)-1H-indole-3-carboxamide]: the EC50 amounted to 411 nM at ratM1 and 365 nM at human M1.

As for `Cn1cc(-c2ccc(Cn3cc(C(=O)NC[C@H]4CCCO4)c4c(F)cccc43)cc2)cn1` [Example 10, (R)-4-fluoro-1-(4-(1-methyl-1H-pyrazol-4-yl)benzyl)-N-((tetrahydrofuran-2-yl)methyl)-1H-indole-3-carboxamide], the EC50 on ratM1 amounted to 398 nM; on human M1, 256 nM.

Consider `Cn1cc(-c2ccc(Cn3cc(C(=O)NC4CCC4)c4c(F)cccc43)cc2)cn1` [Example 11, N-cyclobutyl-4-fluoro-1-(4-(1-methyl-1H-pyrazol-4-yl)benzyl)-1H-indole-3-carboxamide], for which the EC50 on ratM1 stood at 618 nM; on human M1, 413 nM.

As for `Cn1cc(-c2ccc(Cn3cc(C(=O)NC4CCCOC4)c4c(F)cccc43)cc2)cn1` (stereo not drawn) [Example 12, 4-fluoro-1-(4-(1-methyl-1H-pyrazol-4-yl)benzyl)-N-(tetrahydro-2H-pyran-3-yl)-1H-indole-3-carboxamide], the EC50 at ratM1 was 398 nM; at human M1, 129 nM.

For `Cn1cc(-c2ccc(Cn3cc(C(=O)NCC4COC4)c4c(F)cccc43)cc2)cn1` [Example 13, 4-fluoro-1-(4-(1-methyl-1H-pyrazol-4-yl)benzyl)-N-(oxetan-3-ylmethyl)-1H-indole-3-carboxamide], the EC50 at ratM1 turned out to be 250 nM; on human M1 it was 192 nM.

With `Cn1cc(-c2ccc(Cn3cc(C(=O)NCC4CCO4)c4c(F)cccc43)cc2)cn1` (stereo not drawn) [Example 14, 4-fluoro-1-(4-(1-methyl-1H-pyrazol-4-yl)benzyl)-N-(oxetan-2-ylmethyl)-1H-indole-3-carboxamide], the values for the concentration for a half-maximal effect (EC50) at ratM1 and on human M1 were 198 nM and 121 nM, respectively.

Turning to `Cn1cc(-c2ccc(Cn3cc(C(=O)N[C@H]4CCC[C@@H]4O)c4c(F)cccc43)c(F)c2)cn1` [Example 17, 4-Fluoro-1-(2-fluoro-4-(1-methyl-1H-pyrazol-4-yl)benzyl)-N-((1S,2S)-2-hydroxycyclopentyl)-1H-indole-3-carboxamide], the EC50 came to 169 nM at ratM1 and 100 nM at human M1.

`Cn1cc(-c2ccc(Cn3cc(C(=O)NC4CCCOC4)c4c(F)cccc43)c(F)c2)cn1` (stereo not drawn) [Example 19, 4-fluoro-1-(2-fluoro-4-(1-methyl-1H-pyrazol-4-yl)benzyl)-N-(tetrahydro-2H-pyran-3-yl)-1H-indole-3-carboxamide]: the EC50 at ratM1 is 579 nM; on human M1 it was 229 nM.

As for `Cn1cc(-c2ccc(Cn3cc(C(=O)NC4CCCCC4)c4c(F)cccc43)c(F)c2)cn1` [Example 20, N-cyclohexyl-4-fluoro-1-(2-fluoro-4-(1-methyl-1H-pyrazol-4-yl)benzyl)-1H-indole-3-carboxamide], the EC50 on ratM1 stood at 425 nM; on human M1, 204 nM.

With `Cn1cc(-c2ccc(Cn3cc(C(=O)NC4CCOCC4)c4c(F)cccc43)c(F)c2)cn1` [Example 21, 4-fluoro-1-(2-fluoro-4-(1-methyl-1H-pyrazol-4-yl)benzyl)-N-(tetrahydro-2H-pyran-4-yl)-1H-indole-3-carboxamide], the concentration giving a half-maximal response (EC50) on ratM1 is 175 nM; at human M1, 60.5 nM.

`Cn1cc(-c2ccc(Cn3cc(C(=O)N[C@H]4COCC[C@@H]4O)c4c(F)cccc43)c(F)c2)cn1` [Example 22, 4-fluoro-1-(2-fluoro-4-(1-methyl-1H-pyrazol-4-yl)benzyl)-N-((3S,4S)-4-hydroxytetrahydro-2H-pyran-3-yl)-1H-indole-3-carboxamide]: the concentration giving a half-maximal response (EC50) came to 60.5 nM on ratM1 and 17.8 nM at human M1.

Take `Cn1cc(-c2ccc(Cn3cc(C(=O)N[C@H]4CCC[C@H]4O)c4c(F)cccc43)c(F)c2)cn1` [Example 24, 4-fluoro-1-(2-fluoro-4-(1-methyl-1H-pyrazol-4-yl)benzyl)-N-((1S,2R)-2-hydroxycyclopentyl)-1H-indole-3-carboxamide]: the EC50 at ratM1 is 84.5 nM; at human M1, 46.3 nM.
